Laboratory results taken from ChEMBL document CHEMBL1201862, “PubChem BioAssay data set” (2004).
The source made the active and inactive calls.

Key:
Aminopeptidase N = target: T1, Aminopeptidase N (Plasmodium falciparum FcB1/Columbia, UniProt O96935); experiment: malaria alanyl aminopeptidase activity blockers – biochemical, fluorogenic H-Leu-NHMec substrate, 1536-well (AID 1445); design: species or system Plasmodium falciparum 3D7, 3D7
T1 sequence (O96935 whole entry): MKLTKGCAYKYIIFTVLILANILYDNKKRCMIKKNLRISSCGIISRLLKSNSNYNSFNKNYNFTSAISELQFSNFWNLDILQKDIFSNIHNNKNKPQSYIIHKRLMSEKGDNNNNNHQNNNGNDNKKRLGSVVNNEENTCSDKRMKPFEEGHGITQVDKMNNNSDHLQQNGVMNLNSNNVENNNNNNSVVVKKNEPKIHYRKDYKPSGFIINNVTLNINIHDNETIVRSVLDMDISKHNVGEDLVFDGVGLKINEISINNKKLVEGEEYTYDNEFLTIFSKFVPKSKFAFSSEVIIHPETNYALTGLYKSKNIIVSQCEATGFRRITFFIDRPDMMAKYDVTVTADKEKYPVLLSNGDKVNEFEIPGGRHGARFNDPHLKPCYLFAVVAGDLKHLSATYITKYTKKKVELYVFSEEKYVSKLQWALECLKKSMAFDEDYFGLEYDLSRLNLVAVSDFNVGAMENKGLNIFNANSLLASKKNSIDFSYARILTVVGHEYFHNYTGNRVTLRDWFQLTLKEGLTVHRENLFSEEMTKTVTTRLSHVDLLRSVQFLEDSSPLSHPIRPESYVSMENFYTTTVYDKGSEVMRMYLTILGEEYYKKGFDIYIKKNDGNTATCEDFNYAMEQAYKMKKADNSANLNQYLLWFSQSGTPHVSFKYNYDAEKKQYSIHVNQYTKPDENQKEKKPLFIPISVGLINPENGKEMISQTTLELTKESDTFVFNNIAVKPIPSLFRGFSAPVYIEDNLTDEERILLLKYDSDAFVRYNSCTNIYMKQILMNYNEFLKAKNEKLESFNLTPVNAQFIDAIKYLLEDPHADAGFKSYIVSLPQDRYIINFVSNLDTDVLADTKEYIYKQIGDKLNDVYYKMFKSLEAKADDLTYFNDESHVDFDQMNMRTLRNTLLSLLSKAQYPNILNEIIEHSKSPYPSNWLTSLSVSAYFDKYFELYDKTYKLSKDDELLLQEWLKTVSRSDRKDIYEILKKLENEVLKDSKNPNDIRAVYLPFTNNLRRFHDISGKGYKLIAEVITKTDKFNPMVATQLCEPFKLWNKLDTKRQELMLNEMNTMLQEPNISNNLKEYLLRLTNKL

[1] = target: T2, Corticotropin-releasing factor receptor 2/Corticotropin-releasing factor-binding protein (Homo sapiens, UniProt P24387+Q13324); experiment: activators of CRF receptor 2 with binding protein – uHTS hits, confirmation (AID 602473); format: functional; details: read-out: EC50_Mean
T2 sequence (Q13324 whole entry): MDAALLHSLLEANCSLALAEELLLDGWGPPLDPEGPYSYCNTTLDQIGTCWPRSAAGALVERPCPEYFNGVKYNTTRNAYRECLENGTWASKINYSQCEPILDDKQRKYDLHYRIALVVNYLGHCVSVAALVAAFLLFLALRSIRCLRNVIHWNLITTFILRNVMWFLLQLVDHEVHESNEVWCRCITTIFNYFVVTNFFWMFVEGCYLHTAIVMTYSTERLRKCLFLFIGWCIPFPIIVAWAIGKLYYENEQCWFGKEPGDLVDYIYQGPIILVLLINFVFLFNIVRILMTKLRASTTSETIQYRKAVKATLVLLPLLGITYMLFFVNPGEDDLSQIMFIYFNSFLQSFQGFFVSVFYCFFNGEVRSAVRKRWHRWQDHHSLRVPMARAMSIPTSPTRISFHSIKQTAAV
T2 sequence (P24387 whole entry): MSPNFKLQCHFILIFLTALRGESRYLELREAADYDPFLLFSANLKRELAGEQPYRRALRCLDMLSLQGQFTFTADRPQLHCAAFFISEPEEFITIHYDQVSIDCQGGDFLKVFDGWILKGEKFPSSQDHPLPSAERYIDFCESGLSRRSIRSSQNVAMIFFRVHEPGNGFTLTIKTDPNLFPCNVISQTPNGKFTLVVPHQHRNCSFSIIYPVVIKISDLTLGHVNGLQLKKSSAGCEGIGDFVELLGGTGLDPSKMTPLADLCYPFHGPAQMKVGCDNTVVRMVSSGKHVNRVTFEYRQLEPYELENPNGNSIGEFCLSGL

[2] = Trypanosoma cruzi growth suppression in host cells – NIH3T3 host cells, beta-gal luminescence, confirmation (AID 2044); format: functional, cell-based;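 note: intracellular parasites grown in NIH/3T3 mouse fibroblasts as host cells; luminescent beta-galactosidase reporter signal from transgenic T. cruzi replicating inside host cells; inhibitors lower the luminescence signal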
[3] = Luminescence Cell-Based Dose Retest to Confirm Inhibitors of Cancer Stem Cells. [Related pubchem assays (depositor defined):AID2717, AID2721]; format: functional; details: Homo sapiens
[4] = NIH3T3 cell viability loss – ATP luminescence, mouse fibroblasts, counter-screen, dose response (AID 2010); format: functional, cell-based;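 note: cells exposed to compound for about 90 hours before reading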
INS1 = experiment: INS-1E survival protection against cytokine death – cell-based, luminescence, retest, dose response (AID 449756); format: functional; details: Rattus norvegicus;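 note: cell death triggered by IL-1 beta plus TNF-alpha plus IFN-gamma mixture; protective hits raise ATP signal compared with cytokine alone wells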
[5] = target: T3, Ubiquitin-conjugating enzyme E2 N (Homo sapiens, UniProt P61088); format: functional;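 note: Dose-response confirmation in a TR-FRET assay detecting UBC13-driven polyubiquitin chain formation, inhibition measured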
T3 sequence (P61088 whole entry): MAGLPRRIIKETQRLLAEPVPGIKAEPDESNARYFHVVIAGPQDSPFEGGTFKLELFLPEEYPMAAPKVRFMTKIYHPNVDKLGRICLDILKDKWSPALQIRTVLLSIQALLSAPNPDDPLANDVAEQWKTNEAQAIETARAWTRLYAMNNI

Protein RecA = target: T4, Protein RecA (Mycobacterium tuberculosis, UniProt P9WHJ3); experiment: Fluorescence Cell-Free Homogeneous Dose Retest to Identify Inhibitors of RecA-Intein Splicing Activity. [Related pubchem assays (depositor defined):AID2097, AID2223, AID489010, AID492950]; format: functional
T4 sequence (P9WHJ3 whole entry): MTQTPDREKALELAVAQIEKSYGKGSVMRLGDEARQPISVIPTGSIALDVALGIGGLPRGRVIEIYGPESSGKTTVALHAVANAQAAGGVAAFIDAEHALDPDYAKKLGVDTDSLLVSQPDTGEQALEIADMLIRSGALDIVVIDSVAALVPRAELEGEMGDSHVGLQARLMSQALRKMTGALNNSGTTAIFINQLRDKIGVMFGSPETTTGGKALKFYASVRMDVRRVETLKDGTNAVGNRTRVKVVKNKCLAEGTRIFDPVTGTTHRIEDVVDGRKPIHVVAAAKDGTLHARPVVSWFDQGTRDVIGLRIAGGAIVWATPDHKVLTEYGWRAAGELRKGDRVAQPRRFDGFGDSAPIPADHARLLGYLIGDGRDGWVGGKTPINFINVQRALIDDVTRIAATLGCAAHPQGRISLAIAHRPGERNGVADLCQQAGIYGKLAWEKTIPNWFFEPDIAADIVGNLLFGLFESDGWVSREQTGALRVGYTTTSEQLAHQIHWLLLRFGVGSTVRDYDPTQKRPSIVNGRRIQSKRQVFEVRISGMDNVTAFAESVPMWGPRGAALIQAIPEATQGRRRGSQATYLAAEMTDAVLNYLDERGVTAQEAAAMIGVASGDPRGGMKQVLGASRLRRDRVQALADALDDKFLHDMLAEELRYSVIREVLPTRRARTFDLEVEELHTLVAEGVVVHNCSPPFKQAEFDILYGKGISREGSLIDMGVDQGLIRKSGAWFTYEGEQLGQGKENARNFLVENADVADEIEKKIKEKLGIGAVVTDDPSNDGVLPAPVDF

[6] = target: T5, Zinc finger protein mex-5 (Caenorhabditis elegans, UniProt Q9XUB2); experiment: potency of MEX-5 RNA-binding blockers – biochemical, C. elegans, fluorescence polarization, dose response (AID 1960)
T5 sequence (Q9XUB2 whole entry): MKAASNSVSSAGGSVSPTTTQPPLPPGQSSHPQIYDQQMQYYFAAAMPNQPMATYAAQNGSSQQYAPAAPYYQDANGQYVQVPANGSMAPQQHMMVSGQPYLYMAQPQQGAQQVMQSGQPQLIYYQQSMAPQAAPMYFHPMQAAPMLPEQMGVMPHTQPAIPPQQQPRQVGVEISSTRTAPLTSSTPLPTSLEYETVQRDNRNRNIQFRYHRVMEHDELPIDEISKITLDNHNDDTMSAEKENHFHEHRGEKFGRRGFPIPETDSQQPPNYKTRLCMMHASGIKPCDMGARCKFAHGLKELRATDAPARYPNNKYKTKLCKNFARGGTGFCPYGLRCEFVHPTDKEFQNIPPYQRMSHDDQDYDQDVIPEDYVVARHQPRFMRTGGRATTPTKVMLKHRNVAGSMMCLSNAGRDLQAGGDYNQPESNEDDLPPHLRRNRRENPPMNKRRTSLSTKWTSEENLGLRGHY

[7] = target: T6, Replicative DNA helicase DnaB (Mycobacterium tuberculosis, UniProt P9WMR3); experiment: DnaB intein splicing inhibitors, dose response, biochemical, cell-free fluorescence (AID 449749); format: functional
T6 sequence (P9WMR3 whole entry): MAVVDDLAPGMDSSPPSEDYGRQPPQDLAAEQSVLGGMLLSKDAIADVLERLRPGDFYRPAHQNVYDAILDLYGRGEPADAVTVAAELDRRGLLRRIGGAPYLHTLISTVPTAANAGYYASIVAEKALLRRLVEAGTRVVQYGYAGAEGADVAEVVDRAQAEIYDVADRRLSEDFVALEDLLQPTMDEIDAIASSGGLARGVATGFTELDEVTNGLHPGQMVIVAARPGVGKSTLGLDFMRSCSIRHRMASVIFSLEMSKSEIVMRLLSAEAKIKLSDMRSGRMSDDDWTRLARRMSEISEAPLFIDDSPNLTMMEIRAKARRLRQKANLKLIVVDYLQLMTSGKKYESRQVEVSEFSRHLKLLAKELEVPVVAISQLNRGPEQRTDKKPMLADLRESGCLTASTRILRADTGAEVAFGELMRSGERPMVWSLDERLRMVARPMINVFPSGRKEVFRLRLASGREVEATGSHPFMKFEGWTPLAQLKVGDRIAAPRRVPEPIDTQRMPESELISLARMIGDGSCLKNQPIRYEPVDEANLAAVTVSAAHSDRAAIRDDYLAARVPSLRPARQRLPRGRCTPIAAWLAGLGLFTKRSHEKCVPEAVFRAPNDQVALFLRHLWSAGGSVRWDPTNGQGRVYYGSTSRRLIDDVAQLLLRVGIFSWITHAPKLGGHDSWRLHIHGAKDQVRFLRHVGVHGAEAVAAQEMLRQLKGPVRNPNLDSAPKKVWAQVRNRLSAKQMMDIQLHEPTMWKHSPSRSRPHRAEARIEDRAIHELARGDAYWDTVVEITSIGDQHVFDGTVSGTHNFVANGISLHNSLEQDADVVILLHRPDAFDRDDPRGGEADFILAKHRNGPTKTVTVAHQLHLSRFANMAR

[8] = target: T7, RNA-binding protein pos-1 (Caenorhabditis elegans, UniProt G5EF15); experiment: disruptors of C. elegans POS-1 RNA interaction – biochemical, fluorescence polarization, dose response (AID 1964);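 note: purified POS-1 fused to maltose binding protein made in E. coli; potency of compounds blocking POS-1 binding to fluorescent RNA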
T7 sequence (G5EF15 whole entry): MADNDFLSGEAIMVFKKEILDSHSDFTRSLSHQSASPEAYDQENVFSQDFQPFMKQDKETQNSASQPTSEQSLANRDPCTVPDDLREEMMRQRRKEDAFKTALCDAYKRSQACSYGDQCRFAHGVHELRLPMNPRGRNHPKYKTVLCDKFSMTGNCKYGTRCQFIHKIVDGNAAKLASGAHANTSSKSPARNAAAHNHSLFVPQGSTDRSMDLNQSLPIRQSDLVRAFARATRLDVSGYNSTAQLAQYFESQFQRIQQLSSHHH

P388 = experiment: cells; format: functional; details: Mus musculus
SN12K1 = experiment: cells; format: functional; details: Homo sapiens
P388/ADR = experiment: cells; format: functional; details: Mus musculus

Row | SMILES | IC50 [5] | GI50 (P388) | GI50 (SN12K1) | GI50 (P388/ADR) | also measured
1 | COc1cc(/C=C2\C(=N)N3C(=NC2=O)Sc2cc(S(C)(=O)=O)ccc23)ccc1O |  |  |  |  | IC50 (Aminopeptidase N): 45.7 µM (active); EC50 [1]: 5.19 µM (active)
2 | O=C(NC(NC(=S)Nc1ccccc1)C(Cl)(Cl)Cl)c1cccc(Cl)c1 (centres undefined) |  |  |  |  | EC50 [2]: 2.31 µM (active); AC50 [3]: 4.73 µM (active); EC50 [4]: > 60 µM (not active); AC50 (INS1): 8.54 µM (active)
3 | CCn1c(=O)cc(C(F)(F)F)[nH]c1=S | > 20 µM (inactive) |  |  |  | 
4 | Cc1[nH][nH]c(=O)c1C(c1cc([N+](=O)[O-])ccc1O)c1c(C)[nH][nH]c1=O |  |  |  |  | EC50 (Protein RecA): 0.262 µM (active); IC50 (Aminopeptidase N): 30.1 µM (active); EC50 [6]: 16.7 µM (active); AC50 [7]: 0.399 µM (active); EC50 [8]: 64.5 µM (active)
5 | Cc1ccc(C(C(=O)NCC2CCCO2)N(C(=O)c2snc(C(N)=O)c2N)c2ccccc2F)o1 (centres undefined) | > 20 µM (inactive) |  |  |  | 
6 | O=c1c2cc(Br)ccc2[nH]c(=S)n1-c1ccccc1 | > 20 µM (inactive) |  |  |  | 
7 | CCN1CCN(S(=O)(=O)c2ccc(Cl)c(C(=O)N(C)Cc3cccs3)c2)CC1 | > 20 µM (inactive) |  |  |  | 
8 | CCCCCOc1ccc(/C=N\c2ccc(CCc3ccc(/N=C/c4ccc(OCCCCC)cc4)cc3)cc2)cc1 |  | > 100 µM (inactive) | > 100 µM (inactive) |  | 
9 | O=C(CCN1CCCCC1)C(=Cc1ccccc1)C(=O)CCN1CCCCC1 |  | 15.6 µM (inactive) | 52.4 µM (inactive) | 25.9 µM (inactive) | 
10 | C=C(C)C(=O)/N=C(\N)NC#N |  | 3.72 µM (inactive) | 26.4 µM (inactive) | 10.4 µM (inactive) | 
11 | CN(C)CCNC(=O)c1cccc2c(=O)c3ccccc3oc12 |  | 15 µM (inactive) | 19.7 µM (inactive) | 28 µM (inactive) | 
12 | CSC[S+]([O-])C[C@H](CO)NC(=O)/C=C/c1c(C)[nH]c(=O)[nH]c1=O (some centres undefined) |  | 0.416 µM (active) | 1.31 µM (inactive) | 1 µM (active) | 
